Assays:
Histone deacetylase [1] = test: Inhibition of HDAC in human A2780 cells using Boc-Lys(epsilon-Ac)-AMC as substrate preincubated for 18 hrs followed by substrate addition and further incubation for 3 hrs by microplate reader based fluorescence assay; assay type: cell-based
CAL-27 = test: Antiproliferative activity against human CAL27 cells after 72 hrs by microplate reader based MTT assay; assay type: functional, cell-based; details: CAL-27, 72 h
A2780 = test: Antiproliferative activity against human A2780 cells after 72 hrs by microplate reader based MTT assay; assay type: functional, cell-based; details: A2780, 72 h
Histone deacetylase [2] = test: Inhibition of HDAC in human CAL27 cells using Boc-Lys(epsilon-Ac)-AMC as substrate preincubated for 18 hrs followed by substrate addition and further incubation for 3 hrs by microplate reader based fluorescence assay; assay type: cell-based

Row | Compound | IC50 (Histone deacetylase [1]) [µM] | IC50 (CAL-27) [µM] | IC50 (A2780) [µM] | IC50 (Histone deacetylase [2]) [µM]
1 | CC(C(=O)NOCc1ccc(/C=C/C(=O)NO)cc1)(c1ccccc1)c1ccccc1 | 3.34 | 5.71 | 4.55 | 4.81
2 | Cc1cc(C)c(NC(=O)NOCc2ccc(/C=C/C(=O)NO)cc2)c(C)c1 | 2.29 | 3.49 | 3.39 | 4.21
3 | O=C(/C=C/c1ccc(CONC(=O)Nc2ccccc2-c2ccccc2)cc1)NO | 4.03 | 2.62 | 3.57 | 5.65
4 | O=C(/C=C/c1ccc(CONC(=O)c2ccc3ccccc3c2)cc1)NO | 1.92 | 3.65 | 3.11 | 2.83
5 | O=C(/C=C/c1ccc(CONC(=O)c2csc(-c3ccccc3)n2)cc1)NO | 19.2 | 16.3 | 2.02 | 11.6
6 | Cc1cc(C)cc(NC(=O)NOCc2ccc(/C=C/C(=O)NO)cc2)c1 | 1.54 | 2.27 | 2.01 | 1.12
7 | CCNC(=O)NOCc1ccc(/C=C/C(=O)NO)cc1 | 6.85 | 14 | 35.4 | 14.2
8 | O=C(/C=C/c1ccc(CONC(=O)c2ccccc2)cc1)NO | 0.94 | 2.99 | 2.08 | 1.16
9 | Cc1[nH]c2ccccc2c1CC(=O)NOCc1ccc(/C=C/C(=O)NO)cc1 | 1.12 | 5.25 | 14 | 2.65
